# Assay results taken from patent publication US6716867B1, “Use of dexmedetomidine for ICU sedation” (priority 1998, dated 2004).
# Values joined by “and” are separate entries in the source; they are usually repeats but may differ in a detail not shown here. Identical values can stand only once. Like-named read-outs stand apart in the source and are kept apart here.
# What was measured:
# [1] = test system: postoperative CABG patients requiring mechanical ventilation in the ICU
# Description: A double-blind, randomized, placebo-controlled study was conducted to evaluate the efficacy, safety, and titratability of dexmedetomidine in mechanically ventilated patients requiring sedation in the ICU. […] Twelve adult postoperative CABG patients requiring mechanical ventilation in the ICU who met the study selection criteria were eligible for participation.
# The selection criteria were as follows. The patients required sedation for mechanical ventilation for a minimum of 8 hours following surgery, followed by continued sedation for 6 hours after extubation. The patients were not to have been intubated longer than 24 hours to be evaluable for the test. The patients received only morphine for management for pain and received none of the following medications during study drug administration: sedating agents other than midazolam, neuromuscular blocking agents except for insertion of the endotrachael tube, epidural or spinal analgesic/anesthetic agents.
# Safety was evaluated through the monitoring of adverse events, cardiac monitoring, laboratory tests, vital signs, oxygen saturation, and concomitant medications.
# Twelve patients were randomly assigned to receive either dexmedetomidine or placebo with rescue treatment for sedation with midazolam, as clinically indicated. Patients randomized to dexmedetomidine were to receive a 10-minute loading dose of 6.0 μg/kg/h, followed by an initial maintenance infusion. The rate of maintenance infusion was 0.4 μg/kg/h. The maintenance rate of infusion could be titrated in increments of 0.1 μg/kg/h to achieve and maintain a Ramsey Sedation Score of 3 or higher. The range for the maintenance infusion was to be kept between 0.2 and 0.7 μg/kg/h. Dexmedetomidine administration was to begin within one hour after admission to the ICU and continued until 6 hours after extubation. […] The placebo was 0.9% sodium chloride solution administered the same way dexmedetomidine was administered.
# ICU patients [2] = experiment: Phase III multicenter ICU sedation trial, Trial 1 (propofol and morphine as rescue); settings: for dexmedetomidine-treated patients who died: none considered related to dexmedetomidine
# Description: (§1) Two Phase III dexmedetomidine multicenter clinical trials (Trial 1 and Trial 2) have been conducted in ICU sedation in Europe and Canada. Each trial had two parts, i.e., an open-label part (Part I) and double-blind, randomized, placebo-controlled part (Part II). The trials were designed to evaluate the reduction in requirements for ICU sedation (as measured by administration of other sedative/analgesic agents) in patients receiving dexmedetomidine. The use of propofol and morphine for sedation and analgesia, respectively, was evaluated in one trial (Trial 1), and midazolam and morphine in the other trial (Trial 2).
# (§2) In Part I of the trials patients were to be administered a 6.0 μg/kg/h loading dose of dexmedetomidine over a 10-minute period, followed by an initial maintenance infusion of 0.4 μg/kg/h. During Part II of the study, patients were randomly assigned to receive either placebo (0.9% sodium chloride solution) or dexmedetomidine. […] The dexmedetomidine dosing protocol was the same as in the Part I of the study. […] Following extubation, the infusion rate was to be adjusted to achieve a Ramsay Sedation Score of 2 or higher.
# (§3) During the 10-minute loading dose, additional medication was to be avoided, but propofol (0.2-mg/kg bolus) in Trial 1 and midazolam (1-mg bolus) in Trial 2 could be given if necessary. During dexmedetomidine infusion, rescue medications were limited to propofol (0.2 mg/kg IV boluses) in Trial 1 and midazolam ([…]) in Trial 2 for sedation and morphine for pain (2-mg IV boluses). After extubation, paracetamol was to be permitted for pain as clinically indicated. Propofol and midazolam were to be given only after increasing the dexmedetomidine infusion rate. Dexmedetomidine administration in Parts I and II was to begin within 1 hour of admission to the ICU and to be continued for 6 hours after extubation to a maximum of 24 hours total study drug infusion. Patients were observed and assessed for an additional 24 hours after cessation of dexmedetomidine.
# ICU patients [3] = experiment: Phase III multicenter ICU sedation trial, Trial 2 (midazolam and morphine as rescue)
# Description: as §1, §2, §3
# [4] = test system: postsurgical ICU patients
# Description: as §1, §2, §3
# The following 16 cases are from the above mentioned Part II of trials 1 and 2.
# [5] = test system: postoperative coronary artery bypass graft(s) patients (CABG), requiring sedation in the ICU
# [6] = case 4, immediately after extubation
compound,measurement,setting,value
"Cc1cccc([C@H](C)c2c[nH]cn2)c1C [dexmedetomidine, (+)-(S)-4-[1-(2,3-dimethylphenyl)ethyl]-1H-imidazole]","midazolam for sedation or morphine for pain required, vs placebo","[1]; human, in vivo",significantly less
same,respiratory depression,"[1]; human, in vivo",no clinically apparent respiratory depression
same,safety and tolerability,"[1]; human, in vivo",safe and well tolerated
same,need for midazolam rescue for sedation,"[1]; six dexmedetomidine-sedated patients, difference to placebo in mean total midazolam dose p=0.010",did not require any midazolam
same,patients who required morphine for management of pain,"[1]; vs five of six on placebo, mean total morphine dose difference p=0.040",One of six
same,"morphine required for pain, vs placebo",ICU patients [2]; Trial 1,significantly less
same,"propofol required for sedation, vs placebo",ICU patients [2]; Trial 1,significantly less
same,dexmedetomidine-treated patients who died,"ICU patients [2]; Trial 1, Part I",three
same,dexmedetomidine-treated patients who died,"ICU patients [2]; Trial 1, Part II, one placebo-treated patient died",three
same,speed of achieving sedation levels,"ICU patients [2]; Trial 1, vs placebo-treated patients who received propofol",more quickly
same,"changes in systolic blood pressure, diastolic blood pressure and heart rate",ICU patients [2]; in vivo,consistent with the known pharmacological effect of α2-agonists
same,respiratory depression,ICU patients [2]; in vivo,no clinically apparent respiratory depression
same,safety and tolerability,ICU patients [2]; in vivo,safe and well tolerated
same,"midazolam required for sedation, vs placebo",ICU patients [3]; Trial 2,significantly less
same,"morphine required for pain, vs placebo",ICU patients [3]; Trial 2,significantly less
same,deaths among dexmedetomidine-treated patients,"ICU patients [3]; Trial 2, Part I and Part II, five placebo-treated patients died",No deaths
same,speed of achieving sedation levels,"ICU patients [3]; Trial 2, vs placebo-treated patients who received midazolam",more quickly
same,"changes in systolic blood pressure, diastolic blood pressure and heart rate",ICU patients [3]; in vivo,consistent with the known pharmacological effect of α2-agonists
same,respiratory depression,ICU patients [3]; in vivo,no clinically apparent respiratory depression
same,safety and tolerability,ICU patients [3]; in vivo,safe and well tolerated
same,morphine doses required while receiving dexmedetomidine,"[4]; case 1, 5 minutes before extubation",one
same,Ramsay Sedation Score,"[4]; case 1, after the first hour",3
same,Ramsay Sedation Score,"[4]; case 1, during the first hour",6
same,Ramsay Sedation Score,"[4]; case 1, later",2
same,analgesic requirement,"[4]; case 2, during the 12-hour infusion 0.2 to 0.7 μg/kg/h",required no morphine or other analgesic
same,Ramsay Sedation Score,"[4]; case 3, after the first hour",4
same,Ramsay Sedation Score,"[4]; case 3, during the first hour (baseline score, fully anaesthetized after surgery)",6
same,midazolam and morphine requirement,"[4]; case 3, maintenance 0.2 to 0.3 μg/kg/h",required no midazolam or morphine
same,Ramsay Sedation Score,"[4]; case 3, subsequently",3
same,midazolam required,[4]; [6],2 mg
same,morphine required,[4]; [6],2 mg
same,morphine dose required,"[4]; case 5, after dexmedetomidine infusion was discontinued",76 mg
same,midazolam dose received,"[4]; case 5, at 46 minutes and again at 66 minutes after start of infusion",2 mg
same,initial postoperative morphine requirements,"[4]; case 5, during dexmedetomidine infusion",24 mg
same,morphine requirement while on dexmedetomidine,[4]; case 6,required no morphine
same,morphine required,"[4]; case 6, after extubation and cessation of infusion, before discharge from the ICU",4 mg
same,"midazolam administered, total","[4]; case 6, agitation over endotracheal tube at maximum allowable dose",16 mg
same,morphine required,"[4]; case 6, first few hours after return to the ward",~50 mg
same,morphine and midazolam requirement,"[4]; case 6, first hours of infusion",required no morphine or midazolam
same,Ramsey Sedation Score,"[4]; case 6, maintenance 0.4 to 0.7 μg/kg/h",approximately 4
same,Ramsey Sedation Score,"[4]; case 7, 0.4 titrated to 0.7 μg/kg/h",approximately 4
same,morphine requirements,"[4]; case 7, first 6 hours in the ICU, graft failure with ongoing bleeding",fluctuated markedly
same,propofol and morphine requirement,"[4]; case 8, after propofol discontinued at 3 hours, dexmedetomidine tapered to 0.2 μg/kg/h",No additional propofol or morphine was required
same,Ramsey Sedation Score,"[4]; case 8, dexmedetomidine 0.7 μg/kg/h with propofol 4 mg/kg/h, oversedated",6
same,Ramsey Sedation Score,"[4]; case 9, while receiving dexmedetomidine",3
same,additional sedative and analgesia requirement,"[4]; case 10, during the infusion",required no additional sedatives and very little analgesia
same,Ramsey Sedation Score,"[4]; case 10, intubated, infusion 0.4-0.7 μg/kg/h",4
same,additional sedative requirement,"[4]; case 11, history of excessive alcohol intake, infusion between 0.3 and 0.7 μ/kg/h",no additional sedatives were required
same,anxiolysis and orientation,"[4]; case 12, high preoperative anxiety, infusion 0.2-0.5 μg/kg/h","calm, had no fear or apprehension, and was well oriented"
same,achievement of desired level of sedation,"[4]; case 13, FIG. 2",very easily achieved with little dose adjustment
same,morphine sulfate required (single dose),"[4]; case 13, at 6 hours into the study period",2 mg
same,opiate requirement,"[4]; case 14, before extubation",no opiate was required
same,Ramsey Sedation Score,"[4]; case 14, first half hour",6
same,morphine required (single injection),"[4]; case 14, moderate pain after extubation",2 mg
same,Ramsey Sedation Score,"[4]; case 14, remainder of ICU stay after titration (score of 2 or 3)",2 and 3
same,Ramsey Sedation Score,"[4]; case 15, infusion titrated",approximately 3
same,PaCO2,[4]; in vivo,stable
same,blood pressure,[4]; in vivo,transient increase
same,blood pressure (hypotension),[4]; in vivo,70/40
same,haemodynamic instability,[4]; in vivo,No evidence of haemodynamic instability
same,hemodynamic profile,[4]; in vivo,smooth without hypotension or episodes of bradycardia
same,hypotension,[4]; in vivo,one episode of moderate hypotension
same,respiratory depressant effect,[4]; in vivo,absence of a respiratory depressant effect
same,respiratory depression,[4]; in vivo,no respiratory depression
same,patients who required morphine for pain,"[5]; 12 patients, infusion 0.2 to 0.7 μg/kg/h",Two
same,patients with serious adverse events,"[5]; 12 patients, circulatory failure and myocardial infarction, infarction had little or no temporal relationship to dexmedetomidine",One
same,quality of sedation,[5]; dexmedetomidine as only pharmaceutical,"conveniently sedated, hemodynamically stable, and remained easily arousable"
same,blood pressure and heart rate variability,[5]; during administration of dexmedetomidine,decreased
same,time until clinical effects of sedation became evident,"[5]; iv loading 6 μg/kg/h over 10 min, then maintenance 0.2 or 0.4 μg/kg/h",15 to 30 min
